According to patent US20240376123A1, “KRAS G12D INHIBITORS AND USES THEREOF” (SUZHOU ZANRONG PHARMA LIMITED, priority 2021, published 2024):

The molecules below were run on p-ERK in PNAC-1/HPAC cell (assay: Phospho-ERK 1/2 assay (Table 1)). Conditions: Homo sapiens; PNAC-1/HPAC cell, 3 hours compound incubation; read-out: p-ERK IC50.
Assay type: cell-based
Protocol: Allow PNAC-1/HPAC cell growth in a T75 flask in DMEM and 10% 1 fetal calf serum (FCS; Gibco), using standard tissue culture procedures until ˜80% confluency is achieved. Day 1, seed 6000 cells/well in 384 well plate and incubate at 37° C., 5% CO2. Add diluted compound by Echo 550, final DMSO is 0.5%, incubate cells at 37° C., 5% CO2 for 3 hours. Then, remove medium and fix cells with 3.7% formaldehyde in PBS (PFA) by Apricot. Wash with PBS once. Permeabilize cells with cold 100% methanol and repeat wash once with PBS once. Add Li-Cor blocking buffer to each well and incubate 1.5 hours at RT. Remove blocking buffer and add primary antibody mixture (rabbit anti pERK, mouse anti GAPDH). Incubate at 4° C. overnight. Day 2, wash with PBST (Tween-20 in PBS) with total 3 times and then add secondary antibody mixture (goat anti rabbit 800CW (1:800 dilution in the combined solution) and goat anti mouse 680RD (1:800 dilution in the combined solution)), incubate for 60 minutes at RT away from light. Repeat washing with PBST 3 times. After final wash, centrifuge plate up-side-down at 1000 rpm to remove wash solution completely from wells. Before plate scanning, clean the bottom plate surface and the Odyssey* Imager scanning bed (if applicable) with moist, lint-free tissue to avoid any obstructions during scanning. Scan plate with detection in both 700 and 800 nm channels.
With C#Cc1c(F)ccc2cccc(-c3nc4c5c(nc(OCC6(CN7CCOC8(CC8)C7)CC6)nc5c3F)N3CC5CCC(N5)[C@H]3CO4)c12 (stereo in doubt) [Compound 46, (5aS,6R,9S)-12-((1-((4-oxa-7-azaspiro[2.5]octan-7-yl)methyl)cyclopropyl)methoxy)-2-(8-ethynyl-7-fluoronaphthalen-1-yl)-1-fluoro-5a,6,7,8,9,10-hexahydro-5H-4-oxa-3,10a,11,13,14-pentaaza-6,9-methanonaphtho[1,8-ab]heptalene] the IC50 was 328 nM. Molecule Fc1ccc2cccc(-c3nc4c5c(nc(OC[C@@]67CCCN6C[C@H](F)C7)nc5c3F)N3C[C@@H]5CC[C@@H](N5)C3CO4)c2c1F (stereo partly drawn) [Compound 14, (6R,9S)-2-(7,8-difluoronaphthalen-1-yl)-1-fluoro-12-(((2R,7aS)-2-fluorotetrahydro-1H-pyrrolizin-7a(5H)-yl)methoxy)-5a,6,7,8,9,10-hexahydro-5H-4-oxa-3,10a,11,13,14-pentaaza-6,9-methanonaphtho[1,8-ab]heptalene] has an IC50 of 141 nM. Fc1ccc2cccc(-c3nc4c5c(nc(OC[C@@]67CCCN6C[C@H](F)C7)nc5c3F)N3C[C@@H]5CC[C@@H](N5)C3CO4)c2c1 (stereo partly drawn) [Compound 16, (6R,9S)-1-fluoro-2-(7-fluoronaphthalen-1-yl)-12-(((2R,7aS)-2-fluorotetrahydro-1H-pyrrolizin-7a(5H)-yl)methoxy)-5a,6,7,8,9,10-hexahydro-5H-4-oxa-3,10a,11,13,14-pentaaza-6,9-methanonaphtho[1,8-ab]heptalene] showed an IC50 of 355 nM. C#Cc1c(F)ccc2cccc(-c3nc4c5c(nc(OC[C@@]67CCCN6C[C@H](F)C7)nc5c3F)N3CC5CCC(N5)[C@@H]3CO4)c12 (single isomer, unassigned) [Compound 9] gave an IC50 of 308 nM. With C#Cc1c(F)ccc2cccc(-c3nc4c5c(nc(OCC6(CN7CCOCC7)CC6)nc5c3F)N3C[C@H]5CC[C@H](N5)[C@H]3CO4)c12 [Compound 40, (5aS)-2-(8-ethynyl-7-fluoronaphthalen-1-yl)-1-fluoro-12-((1-(morpholinomethyl)cyclopropyl)methoxy)-5a,6,7,8,9,10-hexahydro-5H-4-oxa-3,10a,11,13,14-pentaaza-6,9-methanonaphtho[1,8-ab]heptalene] the IC50 was 155 nM. For Fc1cc2cccc(F)c2c(-c2nc3c4c(nc(OC[C@@]56CCCN5C[C@H](F)C6)nc4c2F)N2C[C@@H]4CC[C@@H](N4)C2CO3)n1 (stereo partly drawn) [Compound 18, (6R,9S)-2-(3,8-difluoroisoquinolin-1-yl)-1-fluoro-12-(((2R,7aS)-2-fluorotetrahydro-1H-pyrrolizin-7a(5H)-yl)methoxy)-5a,6,7,8,9,10-hexahydro-5H-4-oxa-3,10a,11,13,14-pentaaza-6,9-methanonaphtho[1,8-ab]heptalene], the IC50 was 404 nM. Molecule Fc1c(-c2cccc(Cl)c2C2CC2)nc2c3c(nc(OC[C@@]45CCCN4C[C@H](F)C5)nc13)N1C[C@@H]3CC[C@@H](N3)C1CO2 (stereo partly drawn) [Compound 23, (6R,9S)-2-(3-chloro-2-cyclopropylphenyl)-1-fluoro-12-(((2R,7aS)-2-fluorotetrahydro-1H-pyrrolizin-7a(5H)-yl)methoxy)-5a,6,7,8,9,10-hexahydro-5H-4-oxa-3,10a,11,13,14-pentaaza-6,9-methanonaphtho[1,8-ab]heptalene] has an IC50 of 375 nM. For CCc1c(F)ccc2cccc(-c3nc4c5c(nc(OC[C@@]67CCCN6C[C@H](F)C7)nc5c3F)N3C[C@@H]5CC[C@@H](N5)C3CO4)c12 (stereo partly drawn) [Compound 4, (6R,9S)-2-(8-ethyl-7-fluoronaphthalen-1-yl)-1-fluoro-12-(((2R,7aS)-2-fluorotetrahydro-1H-pyrrolizin-7a(5H)-yl)methoxy)-5a,6,7,8,9,10-hexahydro-5H-4-oxa-3,10a,11,13,14-pentaaza-6,9-methanonaphtho[1,8-ab]heptalene], the IC50 was 121 nM. C#Cc1c(F)ccc2cc(O)cc(-c3nc4c5c(nc(OC[C@@]67CCCN6C[C@H](F)C7)nc5c3F)N3C[C@@H]5CC[C@@H](N5)C3CO4)c12 (stereo partly drawn) [Compound 7, 5-ethynyl-6-fluoro-4-((6R,9S)-1-fluoro-12-(((2R,7aS)-2-fluorotetrahydro-1H-pyrrolizin-7a(5H)-yl)methoxy)-5a,6,7,8,9,10-hexahydro-5H-4-oxa-3,10a,11,13,14-pentaaza-6,9-methanonaphtho[1,8-ab]heptalen-2-yl)naphthalen-2-ol] showed an IC50 of 34 nM. Work on Cc1c(F)ccc2cccc(-c3nc4c5c(nc(OC[C@@]67CCCN6C[C@H](F)C7)nc5c3F)N3C[C@@H]5CC[C@@H](N5)C3CO4)c12 (stereo partly drawn) [Compound 13, (6R,9S)-1-fluoro-2-(7-fluoro-8-methylnaphthalen-1-yl)-12-(((2R,7aS)-2-fluorotetrahydro-1H-pyrrolizin-7a(5H)-yl)methoxy)-5a,6,7,8,9,10-hexahydro-5H-4-oxa-3,10a,11,13,14-pentaaza-6,9-methanonaphtho[1,8-ab]heptalene] yielded an IC50 of 237 nM. Work on N#Cc1c(N)sc2cccc(-c3nc4c5c(nc(OC[C@@]67CCCN6C[C@H](F)C7)nc5c3F)N3C[C@@H]5CC[C@@H](N5)C3CO4)c12 (stereo partly drawn) [Compound 22, 2-amino-4-((6R,9S)-1-fluoro-12-(((2R,7aS)-2-fluorotetrahydro-1H-pyrrolizin-7a(5H)-yl)methoxy)-5a,6,7,8,9,10-hexahydro-5H-4-oxa-3,10a,11,13,14-pentaaza-6,9-methanonaphtho[1,8-ab]heptalen-2-yl)benzo[b]thiophene-3-carbonitrile] yielded an IC50 of 493 nM. With Oc1cc(-c2nc3c4c(nc(OC[C@@]56CCCN5C[C@H](F)C6)nc4c2F)N2C[C@@H]4CC[C@@H](N4)C2CO3)c2c(F)cccc2c1 (stereo partly drawn) [Compound 6, 5-fluoro-4-((6R,9S)-1-fluoro-12-(((2R,7aS)-2-fluorotetrahydro-1H-pyrrolizin-7a(5H)-yl)methoxy)-5a,6,7,8,9,10-hexahydro-5H-4-oxa-3,10a,11,13,14-pentaaza-6,9-methanonaphtho[1,8-ab]heptalen-2-yl)naphthalen-2-ol] the IC50 was 86 nM. Work on C#Cc1cccc2cc(O)cc(-c3nc4c5c(nc(OC[C@@]67CCCN6C[C@H](F)C7)nc5c3F)N3C[C@H]5CC[C@H](N5)[C@H]3CO4)c12 [Compound 31, 5-ethynyl-4-((5aS,6S,9R)-1-fluoro-12-(((2R,7aS)-2-fluorotetrahydro-1H-pyrrolizin-7a(5H)-yl)methoxy)-5a,6,7,8,9,10-hexahydro-5H-4-oxa-3,10a,11,13,14-pentaaza-6,9-methanonaphtho[1,8-ab]heptalen-2-yl)naphthalen-2-ol] yielded an IC50 of 8 nM. C#Cc1c(F)ccc2cccc(-c3nc4c5c(nc(OCC6(CN7C8CCC7COC8)CC6)nc5c3F)N3CC5CCC(N5)[C@H]3CO4)c12 (stereo in doubt) [Compound 49, (5aS,6R,9S)-12-((1-((3-oxa-8-azabicyclo[3.2.1]octan-8-yl)methyl)cyclopropyl)methoxy)-2-(8-ethynyl-7-fluoronaphthalen-1-yl)-1-fluoro-5a,6,7,8,9,10-hexahydro-5H-4-oxa-3,10a,11,13,14-pentaaza-6,9-methanonaphtho[1,8-ab]heptalene] gave an IC50 of 851 nM.

Same assay, conditions: read-out: p-ERK IC50; PNAC-1/HPAC cell, 3 hours compound incubation
C#Cc1c(F)ccc2cccc(-c3nc4c5c(nc(OCC67CCCN6C(COC(=O)N(C)C)CC7)nc5c3F)N3CC5CCC(N5)[C@H]3CO4)c12 (stereo in doubt) [Compound 38, (7a-((((5aS,6R,9S)-2-(8-ethynyl-7-fluoronaphthalen-1-yl)-1-fluoro-5a,6,7,8,9,10-hexahydro-5H-4-oxa-3,10a,11,13,14-pentaaza-6,9-methanonaphtho[1,8-ab]heptalen-12-yl)oxy)methyl)hexahydro-1H-pyrrolizin-3-yl)methyl dimethylcarbamate] gave an IC50 of 70 nM.
